Source: US11834414B2, “1-methyl-4-[(4-phenylphenyl)sulfonylmethyl]cyclohexyanol and 1-methyl-4-[[4-(2-pyridyl)phenyl]sulfonylmethyl]cyclohexanol compounds and their therapeutic use” (Modern Biosciences Limited, priority 2018, dated 2023)
“Also recorded” adds a separate entry of the source.

Columns and labels:
human hepatocytes = test: Human hepatocyte stability; format: in vitro ADME; details: hepatocyte stability, compared to the reference compounds
In short: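 Compounds (1 μM final, 0.1% DMSO, 0.9% acetonitrile) were incubated in duplicate with pooled rat or human hepatocytes at 37° C, sampled at 0–60 min and quenched with methanol. Remaining parent was measured by LC-MS/MS. Elimination rate constant came from the ln(concentration)–time slope, giving t1/2 and CLint scaled to hepatocyte concentration.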

[1] = Metabolite identification in rats; format: in vivo, Han Wistar rats; details: rat, 1 mg/kg intravenous, up to 24 hours
Procedure: The formation of metabolites in rats was assessed to determine the propensity of the compounds to form a biaryl metabolite.
The corresponding sulfonamide compounds (for example, reference compound HMC-C-01-A) give rise to a sulphonamide metabolite which is persistent and has a long half-life. In addition, the biaryl sulphonamide metabolite acts as an inducer of metabolism in rats, which may complicate the assessment of toxicity in rodents. Therefore, the lower the propensity to form a biaryl sulphonamide metabolite, the greater the potential suitability of the compound for development for human use.
Plasma samples from Han Wistar rats, aged 8-12 weeks, were collected from animals dosed with test compound. Test compounds at a dose of 1 mg/kg were administered intravenously as a solution in 5% NMP, 5% Solutol HS, and 90% normal saline. Animals were given free access to food throughout the study. Blood samples were taken under light isoflurane anaesthesia at 12 time points following an intravenous dose (0.033, 0.1, 0.167, 0.25, 0.5, 1, 2, 4, 6, 8, 12, and 24 hours). The blood samples were collected from a set of three rats at each time point in labelled micro centrifuge tube containing K2EDTA as anticoagulant. Plasma samples were separated by centrifugation of whole blood.
All samples were processed for analysis by protein precipitation using acetonitrile and analysed with a fit-for-purpose LC-MS/MS method.
At the completion of the study, the results were expressed as detection of the metabolite and time course of formation.

Row | Compound | metabolic stability (in words) (human hepatocytes) | formation of biaryl sulphonamide metabolite (MET-001) in plasma [1]
1 | C[C@]1(O)CC[C@@H](CS(=O)(=O)c2ccc(-c3ccc(C#N)cc3F)cc2C(F)(F)F)CC1 [CHMSA-02-A, 2-fluoro-4′-(((cis-4-hydroxy-4-methylcyclohexyl)methyl)sulfonyl)-3′-(trifluoromethyl)-[1,1′-biphenyl]-4-carbonitrile] | exceptionally good stability | –
2 | C[C@]1(O)CC[C@@H](CS(=O)(=O)c2ccc(-c3ncc(F)cc3F)c(F)c2)CC1 [CHMSA-03-A, cis-4-(((4-(3,5-difluoropyridin-2-yl)-3-fluorophenyl)sulfonyl)methyl)-1-methylcyclohexan-1-ol] | exceptionally good stability | –
3 | C[C@]1(O)CC[C@H](NS(=O)(=O)c2ccc(-c3ccc(Cl)cc3C#N)cc2)CC1 [HMC-C-01-A, reference compound] | – | formed in large quantities and accumulated over time; also recorded: in large quantities (which accumulated over time)
